Values quoted from earlier work as cited in patent publication US20090186826A1, “Cosmetic or dermopharmaceutical compositions of ceramides and polypeptides” (SEDERMA, priority 2003, published 2009).
Where no end group is shown, it is not given here.

Tested on: fibroblasts
Details: reported by Senior et al. J. Cell Biol. 99, 870-874, 1984

In the case of “VGVAPG [fragment of the protein called elastin]”, the chemotactic activity is listed as “chemotactic activity”.
